# Assay: cysteine challenge experiment (stability of Re and Tc carborane complexes)
# Assay type: physicochemical
# Conditions: thousand fold excess of cysteine, 1:1 (v/v) phosphate buffer (pH=7.4)-ethanol, 37° C., over 24 hours
# Description: The stability of the Re and Tc carborane complexes were evaluated using a cysteine challenge experiment.^21 Compound 1, for example, was incubated with a thousand fold excess of cysteine in a 1:1 (v/v) phosphate buffer (pH=7.4)-ethanol mixture at 37° C. over 24 hours.
substance,measurement,value
"[NEt4][Re(CO)3(η^5-7,8-C2B9H11)] [Compound 1]","stability (decomposition) in cysteine challenge by HPLC, FTIR and electrospray mass spectrometry",no signs of decomposition
